Measured values: ChEMBL document CHEMBL3217679, “Synthesis and biological activity profile of novel 2-cinnamylidene-1,3-diones related to coruscanone A: promising new antileishmanial agents” (Medchemcomm, 2012)
Calls of active or inactive are those of the source. The calls are words filed in the database; no cut-off is given here.

Key:
Plasmodium falciparum [1] = test: Antiparasitic activity against chloroquine-resistant Plasmodium falciparum W2 assessed as growth inhibition at 16 uM after 48 hrs by pLDH assay; assay type: functional, organism-based
Leishmania donovani = test: Antiparasitic activity against Leishmania donovani S1 promastigotes assessed as growth inhibition after 72 hrs by alamar blue assay; assay type: functional, organism-based; details: S1, 72 h
Candida albicans = test: Antifungal activity against Candida albicans ATCC 90028 assessed as growth inhibition after 46 to 50 hrs by modified CLSI method; assay type: functional, organism-based
Cryptococcus neoformans = test: Antifungal activity against Cryptococcus neoformans ATCC 90113 assessed as growth inhibition after 70 to 74 hrs by modified CLSI method; assay type: functional, organism-based
Nakaseomyces glabratus = test: Antifungal activity against Candida glabrata ATCC 90030 assessed as growth inhibition after 46 to 50 hrs by modified CLSI method; assay type: functional, organism-based
Pichia kudriavzevii = test: Antifungal activity against Candida krusei ATCC 6258 assessed as growth inhibition after 46 to 50 hrs by modified CLSI method; assay type: functional, organism-based
Aspergillus fumigatus = test: Antifungal activity against Aspergillus fumigatus ATCC 90906 assessed as growth inhibition after 46 to 50 hrs by alamar blue assay; assay type: functional, organism-based
[2] = Cytotoxicity against African green monkey Vero cells by neutral red assay; assay type: cell-based; details: chlorocebus sabaeus, read-out: TC50 (the source's name)
Plasmodium falciparum [3] = test: Antiparasitic activity against chloroquine-sensitive Plasmodium falciparum D6 assessed as growth inhibition at 16 uM after 48 hrs by pLDH assay; assay type: functional, organism-based

SMILES: CC1(C)CC(=O)C(=CC=C(c2ccccc2)c2ccccc2)C(=O)C1
- growth inhibition (GI) (Plasmodium falciparum [1]): inactive
- IC50 (Leishmania donovani): 9.38 µM
- IC90 (Leishmania donovani): 26.6 µM
- growth inhibition (GI) (Candida albicans): inactive
- IC50 (Cryptococcus neoformans): 23.6 µM
- IC50 (Nakaseomyces glabratus): > 60 µM
- IC50 (Pichia kudriavzevii): > 60 µM
- growth inhibition (GI) (Aspergillus fumigatus): inactive
- CC50 [2]: > 14.4 µM
- growth inhibition (GI) (Plasmodium falciparum [3]): inactive

SMILES: COC(/C=C/c1ccccc1)=C1\C(=O)C=C(C)C1=O [CORUSCANONE A]
- CC50 [2]: 19.3 µM

SMILES: CC1(C)CC(=O)C(=C/C=C/c2ccccc2)C(=O)C1
- growth inhibition (GI) (Plasmodium falciparum [1]): inactive
- IC50 (Leishmania donovani): 20.1 µM
- IC90 (Leishmania donovani): 27.5 µM
- growth inhibition (GI) (Candida albicans): inactive
- IC50 (Cryptococcus neoformans): 19 µM
- IC50 (Nakaseomyces glabratus): 35.3 µM
- IC50 (Pichia kudriavzevii): > 60 µM
- growth inhibition (GI) (Aspergillus fumigatus): inactive
- CC50 [2]: > 18.7 µM
- growth inhibition (GI) (Plasmodium falciparum [3]): inactive

SMILES: CC(=O)C(=CC=C(c1ccccc1)c1ccccc1)C(C)=O
- growth inhibition (GI) (Plasmodium falciparum [1]): inactive
- IC50 (Leishmania donovani): 9.29 µM
- IC90 (Leishmania donovani): 66.1 µM
- growth inhibition (GI) (Candida albicans): inactive
- IC50 (Cryptococcus neoformans): 35.3 µM
- IC50 (Nakaseomyces glabratus): > 60 µM
- IC50 (Pichia kudriavzevii): > 60 µM
- growth inhibition (GI) (Aspergillus fumigatus): inactive
- CC50 [2]: > 16.4 µM
- growth inhibition (GI) (Plasmodium falciparum [3]): inactive

SMILES: COc1ccc(/C=C/C=C2C(=O)CCCC2=O)cc1
- growth inhibition (GI) (Plasmodium falciparum [1]): inactive
- IC50 (Leishmania donovani): 19.5 µM
- IC90 (Leishmania donovani): 91.7 µM
- growth inhibition (GI) (Candida albicans): inactive
- IC50 (Cryptococcus neoformans): 44.7 µM
- IC50 (Nakaseomyces glabratus): 56 µM
- IC50 (Pichia kudriavzevii): > 60 µM
- growth inhibition (GI) (Aspergillus fumigatus): inactive
- CC50 [2]: > 18.6 µM
- growth inhibition (GI) (Plasmodium falciparum [3]): inactive

SMILES: COc1ccc(/C=C/C=C2C(=O)CC(c3ccccc3)CC2=O)cc1 (stereo unspecified)
- growth inhibition (GI) (Plasmodium falciparum [1]): inactive
- IC50 (Leishmania donovani): 7.52 µM
- IC90 (Leishmania donovani): 14.7 µM
- growth inhibition (GI) (Candida albicans): inactive
- IC50 (Cryptococcus neoformans): > 60 µM
- IC50 (Nakaseomyces glabratus): > 60 µM
- IC50 (Pichia kudriavzevii): > 60 µM
- growth inhibition (GI) (Aspergillus fumigatus): inactive
- CC50 [2]: > 14.3 µM
- growth inhibition (GI) (Plasmodium falciparum [3]): inactive

SMILES: CC(=O)C(=C/C=C/c1ccccc1)C(C)=O
- growth inhibition (GI) (Plasmodium falciparum [1]): inactive
- IC50 (Leishmania donovani): 19.1 µM
- IC90 (Leishmania donovani): 52.3 µM
- growth inhibition (GI) (Candida albicans): inactive
- IC50 (Cryptococcus neoformans): > 60 µM
- IC50 (Nakaseomyces glabratus): > 60 µM
- IC50 (Pichia kudriavzevii): > 60 µM
- growth inhibition (GI) (Aspergillus fumigatus): inactive
- CC50 [2]: > 22.2 µM
- growth inhibition (GI) (Plasmodium falciparum [3]): inactive

SMILES: O=C1CCC(=O)C1=C/C=C/c1ccc(Br)cc1
- growth inhibition (GI) (Plasmodium falciparum [1]): inactive
- IC50 (Leishmania donovani): 8.58 µM
- IC90 (Leishmania donovani): 14.1 µM
- growth inhibition (GI) (Candida albicans): inactive
- IC50 (Cryptococcus neoformans): 26.9 µM
- IC50 (Nakaseomyces glabratus): > 60 µM
- IC50 (Pichia kudriavzevii): > 60 µM
- growth inhibition (GI) (Aspergillus fumigatus): inactive
- CC50 [2]: > 16.3 µM
- growth inhibition (GI) (Plasmodium falciparum [3]): inactive

SMILES: CC(=O)C(=C/C=C/c1ccc(Br)cc1)C(C)=O
- growth inhibition (GI) (Plasmodium falciparum [1]): inactive
- IC50 (Leishmania donovani): 9.55 µM
- IC90 (Leishmania donovani): 24.6 µM
- growth inhibition (GI) (Candida albicans): inactive
- IC50 (Cryptococcus neoformans): 11.7 µM
- IC50 (Nakaseomyces glabratus): > 60 µM
- IC50 (Pichia kudriavzevii): > 60 µM
- growth inhibition (GI) (Aspergillus fumigatus): inactive
- CC50 [2]: > 16.2 µM
- growth inhibition (GI) (Plasmodium falciparum [3]): inactive

SMILES: COc1ccc(/C=C/C=C(C(C)=O)C(C)=O)cc1
- growth inhibition (GI) (Plasmodium falciparum [1]): inactive
- IC50 (Leishmania donovani): 38.5 µM
- IC90 (Leishmania donovani): > 100 µM
- growth inhibition (GI) (Candida albicans): inactive
- IC50 (Cryptococcus neoformans): > 60 µM
- IC50 (Nakaseomyces glabratus): > 60 µM
- IC50 (Pichia kudriavzevii): > 60 µM
- growth inhibition (GI) (Aspergillus fumigatus): inactive
- CC50 [2]: > 19.5 µM
- growth inhibition (GI) (Plasmodium falciparum [3]): inactive

SMILES: C/C=C/C=C/C=C1C(=O)CC(C)(C)CC1=O
- growth inhibition (GI) (Plasmodium falciparum [1]): inactive
- IC50 (Leishmania donovani): 45.8 µM
- IC90 (Leishmania donovani): > 100 µM
- growth inhibition (GI) (Candida albicans): inactive
- IC50 (Cryptococcus neoformans): > 60 µM
- IC50 (Nakaseomyces glabratus): > 60 µM
- IC50 (Pichia kudriavzevii): > 60 µM
- growth inhibition (GI) (Aspergillus fumigatus): inactive
- CC50 [2]: > 21.8 µM
- growth inhibition (GI) (Plasmodium falciparum [3]): inactive
